This note sets out measurements from ChEMBL document CHEMBL1909046, “DrugMatrix in vitro pharmacology data”.

By IC50 is commonly meant the concentration needed to halve the response being measured. Broadly, the Ki is the equilibrium dissociation constant of an inhibitor or competing ligand from its target.

Assay [1] addresses T1, Angiotensin-converting enzyme (Oryctolagus cuniculus, UniProt P12822).
T1 sequence (P12822 whole entry): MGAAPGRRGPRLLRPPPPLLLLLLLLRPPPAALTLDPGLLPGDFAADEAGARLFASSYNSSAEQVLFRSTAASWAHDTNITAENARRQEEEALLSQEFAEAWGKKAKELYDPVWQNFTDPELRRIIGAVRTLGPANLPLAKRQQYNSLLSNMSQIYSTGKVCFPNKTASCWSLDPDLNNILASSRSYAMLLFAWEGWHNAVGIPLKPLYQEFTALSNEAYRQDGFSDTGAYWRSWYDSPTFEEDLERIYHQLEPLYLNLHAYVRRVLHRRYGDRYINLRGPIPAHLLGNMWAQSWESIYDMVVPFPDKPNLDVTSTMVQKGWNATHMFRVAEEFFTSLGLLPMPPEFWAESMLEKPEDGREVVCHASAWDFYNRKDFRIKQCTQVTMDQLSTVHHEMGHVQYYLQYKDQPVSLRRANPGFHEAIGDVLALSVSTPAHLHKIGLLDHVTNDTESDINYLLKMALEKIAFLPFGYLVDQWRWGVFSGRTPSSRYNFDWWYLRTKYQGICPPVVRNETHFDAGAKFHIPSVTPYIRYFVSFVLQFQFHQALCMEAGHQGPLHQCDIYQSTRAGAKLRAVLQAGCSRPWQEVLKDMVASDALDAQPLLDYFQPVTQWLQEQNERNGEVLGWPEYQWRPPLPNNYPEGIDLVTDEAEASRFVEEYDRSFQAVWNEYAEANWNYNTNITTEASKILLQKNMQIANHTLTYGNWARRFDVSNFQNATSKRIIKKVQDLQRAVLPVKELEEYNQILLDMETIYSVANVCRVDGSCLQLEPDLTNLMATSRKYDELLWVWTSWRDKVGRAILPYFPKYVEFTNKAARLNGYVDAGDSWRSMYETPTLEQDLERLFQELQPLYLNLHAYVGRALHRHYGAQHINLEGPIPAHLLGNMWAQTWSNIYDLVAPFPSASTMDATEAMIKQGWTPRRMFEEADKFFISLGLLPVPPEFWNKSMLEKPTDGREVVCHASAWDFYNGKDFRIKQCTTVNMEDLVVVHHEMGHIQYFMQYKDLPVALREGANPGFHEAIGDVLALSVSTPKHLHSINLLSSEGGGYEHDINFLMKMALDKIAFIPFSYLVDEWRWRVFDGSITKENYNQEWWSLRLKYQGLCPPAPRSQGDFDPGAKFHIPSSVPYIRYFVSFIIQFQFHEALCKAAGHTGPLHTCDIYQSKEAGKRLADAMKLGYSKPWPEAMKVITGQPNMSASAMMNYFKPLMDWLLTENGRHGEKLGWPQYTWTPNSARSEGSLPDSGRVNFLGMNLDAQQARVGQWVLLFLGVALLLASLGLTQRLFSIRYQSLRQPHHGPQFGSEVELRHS
Type of assay: tissue-based, Lung.

The target in the next assay is Vasopressin V1a receptor (Homo sapiens, UniProt P37288). Type of assay: cell membranes, Membrane. The conditions noted are these: hek293. Note: in other assays of this panel Not Active means under 50% inhibition at 10 µM.
Assay [2] in a line: DRUGMATRIX: GABAA, Chloride Channel, TBOB radioligand binding (ligand: [3H] TBOB). Type of assay: cell membranes, Rattus norvegicus, Wistar, Cerebral cortex, Membrane. The conditions noted are these: Not Active = under 50% inhibition at 10 µM.
In assay [3] the target is 5-hydroxytryptamine receptor 6 (Homo sapiens, UniProt P50406). Type of assay: cell membranes, HeLa, Membrane. The note with it: for Ki: read-out: Ki. For all read-outs here: in other assays of this panel Not Active means under 50% inhibition at 10 µM.
In assay [4] the target is Prostaglandin G/H synthase 1 (Homo sapiens, UniProt P23219). Nature of the assay: biochemical. The conditions noted are these: platelet. Type of assay: tissue-based, Platelet.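 Note: inhibition of COX-1 enzyme activity, with arachidonic acid supplied as substrate; in other assays of this panel Not Active means under 50% inhibition at 10 µM.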
Assay [5] is described as follows: DRUGMATRIX: GABAA, Flunitrazepam, Central radioligand binding (ligand: [3H] Flunitrazepam). Type of assay: cell membranes, Rattus norvegicus, Wistar, Brain, Membrane. The conditions noted are these: Not Active = under 50% inhibition at 10 µM.
Assay [6] addresses Beta-2 adrenergic receptor (Homo sapiens, UniProt P07550). Nature of the assay: DRUGMATRIX: Adrenergic beta2 radioligand binding (ligand: [3H] CGP-12177). Type of assay: cell membranes, Membrane. The note with it: cho; Not Active = under 50% inhibition at 10 µM.
Assay [7] can be described thus: DRUGMATRIX: Interleukin IL-1 radioligand binding (ligand: [125I] interleukin 1beta). Type of assay: cell membranes, Membrane. The conditions noted are these: nih3t3; Not Active = under 50% inhibition at 10 µM.

Molecules are shown by their SMILES.

Sequence of Prostaglandin G/H synthase 1 (P23219 whole entry): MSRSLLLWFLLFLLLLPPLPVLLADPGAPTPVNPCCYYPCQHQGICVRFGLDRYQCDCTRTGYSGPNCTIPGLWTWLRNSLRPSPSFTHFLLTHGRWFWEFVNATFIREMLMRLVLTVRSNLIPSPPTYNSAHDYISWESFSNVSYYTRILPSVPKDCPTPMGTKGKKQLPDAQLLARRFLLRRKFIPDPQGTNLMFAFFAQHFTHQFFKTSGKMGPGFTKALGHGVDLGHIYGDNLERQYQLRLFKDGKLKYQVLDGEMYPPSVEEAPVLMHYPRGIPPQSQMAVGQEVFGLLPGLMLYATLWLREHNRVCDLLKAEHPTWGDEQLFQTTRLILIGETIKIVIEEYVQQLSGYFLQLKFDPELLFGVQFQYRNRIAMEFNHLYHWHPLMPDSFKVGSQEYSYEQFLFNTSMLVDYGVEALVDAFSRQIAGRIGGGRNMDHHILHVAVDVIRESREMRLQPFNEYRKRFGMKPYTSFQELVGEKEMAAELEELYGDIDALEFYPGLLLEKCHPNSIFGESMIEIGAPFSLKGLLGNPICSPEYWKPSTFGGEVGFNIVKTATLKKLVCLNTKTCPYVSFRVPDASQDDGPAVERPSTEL
Sequence of 5-hydroxytryptamine receptor 6 (P50406 whole entry): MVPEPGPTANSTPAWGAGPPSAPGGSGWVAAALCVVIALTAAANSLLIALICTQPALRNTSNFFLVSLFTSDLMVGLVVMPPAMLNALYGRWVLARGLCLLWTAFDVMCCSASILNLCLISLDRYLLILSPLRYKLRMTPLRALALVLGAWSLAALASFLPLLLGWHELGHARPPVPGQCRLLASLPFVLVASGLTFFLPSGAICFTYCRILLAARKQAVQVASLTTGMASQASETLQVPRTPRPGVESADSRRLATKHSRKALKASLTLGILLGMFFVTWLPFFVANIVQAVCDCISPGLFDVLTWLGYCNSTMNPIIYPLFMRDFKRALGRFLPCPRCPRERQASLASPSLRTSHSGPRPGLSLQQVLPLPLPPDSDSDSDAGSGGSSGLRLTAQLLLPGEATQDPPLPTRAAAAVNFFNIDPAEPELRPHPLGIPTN
Sequence of Vasopressin V1a receptor (P37288 whole entry): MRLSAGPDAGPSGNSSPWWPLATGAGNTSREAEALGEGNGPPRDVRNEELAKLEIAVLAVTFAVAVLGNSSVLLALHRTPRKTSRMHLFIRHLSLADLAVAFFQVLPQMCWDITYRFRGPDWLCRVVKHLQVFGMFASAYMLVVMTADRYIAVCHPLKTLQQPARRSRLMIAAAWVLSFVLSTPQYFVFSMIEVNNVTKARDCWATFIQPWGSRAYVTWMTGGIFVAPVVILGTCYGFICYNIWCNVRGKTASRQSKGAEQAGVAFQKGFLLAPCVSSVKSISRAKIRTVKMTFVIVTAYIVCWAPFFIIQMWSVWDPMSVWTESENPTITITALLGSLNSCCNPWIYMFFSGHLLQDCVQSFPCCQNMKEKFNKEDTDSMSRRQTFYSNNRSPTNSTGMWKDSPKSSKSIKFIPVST
Sequence of Beta-2 adrenergic receptor (P07550 whole entry): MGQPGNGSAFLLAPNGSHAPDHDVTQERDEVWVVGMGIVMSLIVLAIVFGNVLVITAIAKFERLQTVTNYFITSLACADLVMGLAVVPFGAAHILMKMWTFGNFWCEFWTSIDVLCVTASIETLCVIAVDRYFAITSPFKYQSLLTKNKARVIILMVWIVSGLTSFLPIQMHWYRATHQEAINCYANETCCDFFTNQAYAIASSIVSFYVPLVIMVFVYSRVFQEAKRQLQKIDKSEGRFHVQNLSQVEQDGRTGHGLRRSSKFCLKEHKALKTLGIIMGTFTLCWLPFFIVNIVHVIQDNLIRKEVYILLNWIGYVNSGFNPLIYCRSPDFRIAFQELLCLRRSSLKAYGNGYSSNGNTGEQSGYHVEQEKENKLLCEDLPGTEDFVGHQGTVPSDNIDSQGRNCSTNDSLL

As to `Nc1nc(N)nc(-c2cc(Cl)ccc2Cl)n1.O=C(O)/C=C\C(=O)O` [IRSOGLADINE MALEATE], the half-inhibitory concentration (IC50) result (in assay [1]; against Vasopressin V1a receptor; in assay [2]; in assay [3] (hela); in assay [4]; in assay [5]) was “Not Active” throughout. The 50% inhibitory concentration (IC50) result in assay [6] and in assay [7] was “Not Active” each time. Moreover, the Ki result in assay [2], in assay [5] and in assay [7] was “Not Active” each time.
With `CC1(C)O[C@@H]2C[C@H]3[C@@H]4CCC5=CC(=O)CC[C@]5(C)[C@@]4(F)[C@@H](O)C[C@]3(C)[C@]2(C(=O)CCl)O1` [HALCINONIDE], the IC50 result (in assay [1]; on Vasopressin V1a receptor; in assay [2]; in assay [3] (hela); in assay [4]; in assay [5]) was “Not Active” throughout. Besides, the IC50 result in assay [6] and in assay [7] was “Not Active” throughout. Moreover, the Ki entry in assay [2], in assay [5] and in assay [7] was “Not Active” each time.
As for `O=c1[nH]c(=O)n([C@H]2C[C@H](O)[C@@H](CO)O2)cc1I` [IDOXURIDINE], the IC50 result (in assay [1]; against Vasopressin V1a receptor; in assay [2]; in assay [3] (hela); in assay [4]; in assay [5]) was “Not Active” throughout. The IC50 result in assay [6] and in assay [7] was “Not Active” each time. The Ki entry in assay [2], in assay [5] and in assay [7] was “Not Active” throughout.
As for `CC(C)C(=O)Nc1ccc([N+](=O)[O-])c(C(F)(F)F)c1` [FLUTAMIDE], the half-maximal inhibitory concentration (IC50) result in assay [1] is “Not Active”; at Vasopressin V1a receptor it was “Not Active”; in assay [2] it was “Not Active”; in assay [3] (read-out: IC50), 17.8 µM; in assay [4], “Not Active”; in assay [5], “Not Active”. Besides, the 50% inhibitory concentration (IC50) entry in assay [6] and in assay [7] was “Not Active” throughout. In addition, the inhibitory constant (Ki) entry in assay [2] is “Not Active”; in assay [3], 8.27 µM; in assay [5], “Not Active”; in assay [7], “Not Active”.
`CCC1(c2ccc(N)cc2)CCC(=O)NC1=O` (configuration not stated) [AMINOGLUTETHIMIDE]: the IC50 result (in assay [1]; at Vasopressin V1a receptor; in assay [2]; in assay [3] (hela); in assay [4]; in assay [5]) was “Not Active” in each case. The IC50 result in assay [6] and in assay [7] was “Not Active” each time. Also, the Ki entry in assay [2], in assay [5] and in assay [7] was “Not Active” each time.
For `Cc1ccc2cc3c(ccc4ccccc43)c3c2c1CC3` [3-METHYLCHOLANTHRENE], the IC50 entry (in assay [1]; at Vasopressin V1a receptor; in assay [2]; in assay [3] (hela); in assay [4]; in assay [5]) was “Not Active” throughout. The IC50 result in assay [6] and in assay [7] was “Not Active” throughout. Also, the Ki result in assay [2], in assay [5] and in assay [7] was “Not Active” each time.
Turning to `O=C(O)CCCc1ccc(N(CCCl)CCCl)cc1` [CHLORAMBUCIL], the IC50 entry (in assay [1]; on Vasopressin V1a receptor; in assay [2]; in assay [3] (hela); in assay [4]; in assay [5]) was “Not Active” throughout. Besides, the IC50 entry in assay [6] and in assay [7] was “Not Active” each time. Moreover, the Ki result in assay [2], in assay [5] and in assay [7] was “Not Active” in each case.
For `CC(NC(C)(C)C)C(=O)c1cccc(Cl)c1` (configuration not stated) [BUPROPION], the half-maximal inhibitory concentration (IC50) result (in assay [1]; against Vasopressin V1a receptor; in assay [2]; in assay [3] (hela); in assay [4]; in assay [5]) was “Not Active” in each case. For the same compound, the IC50 result in assay [6] and in assay [7] was “Not Active” each time. The inhibitory constant (Ki) entry in assay [2], in assay [5] and in assay [7] was “Not Active” throughout.
For the compound `C=C(C)C1(O)OC(=O)C=C1OC` (configuration not stated) [PENICILLIC ACID], the IC50 result (in assay [1]; against Vasopressin V1a receptor; in assay [2]; in assay [3] (hela); in assay [4]; in assay [5]) was “Not Active” in each case. Also, the half-maximal inhibitory concentration (IC50) result in assay [6] and in assay [7] was “Not Active” in each case. The inhibition constant (Ki) entry in assay [2], in assay [5] and in assay [7] was “Not Active” throughout.
`CCCC1O[C@@H]2C[C@H]3[C@@H]4CCC5=CC(=O)C=C[C@]5(C)[C@H]4[C@@H](O)C[C@]3(C)[C@]2(C(=O)CO)O1` (some centres not stated) [BUDESONIDE]: the half-maximal inhibitory concentration (IC50) entry (in assay [1]; against Vasopressin V1a receptor; in assay [2]; in assay [3] (hela); in assay [4]; in assay [5]) was “Not Active” in each case. Further, the IC50 entry in assay [6] and in assay [7] was “Not Active” each time. The inhibition constant (Ki) entry in assay [2], in assay [5] and in assay [7] was “Not Active” each time.
On to `CC1CC(OC(=O)C(O)c2ccccc2)CC(C)(C)C1` (configuration not stated) [CYCLANDELATE], for which the IC50 entry (in assay [1]; at Vasopressin V1a receptor; in assay [2]; in assay [3] (hela); in assay [4]; in assay [5]) was “Not Active” in each case. Besides, the half-inhibitory concentration (IC50) result in assay [6] and in assay [7] was “Not Active” each time. Further, the Ki result in assay [2], in assay [5] and in assay [7] was “Not Active” throughout.
Take `C1CCC(C(CC2CCCCN2)C2CCCCC2)CC1` (configuration not stated) [PERHEXILINE]: the half-maximal inhibitory concentration (IC50) result (in assay [1]; against Vasopressin V1a receptor; in assay [2]; in assay [3] (hela); in assay [4]; in assay [5]) was “Not Active” each time. Further, the 50% inhibitory concentration (IC50) result in assay [6] and in assay [7] was “Not Active” throughout. For the same compound, the Ki entry in assay [2], in assay [5] and in assay [7] was “Not Active” each time.
With `CC(C)[C@H]1C(=O)N2CCC[C@H]2[C@]2(O)O[C@](NC(=O)[C@@H]3C=C4c5cccc6[nH]cc(c56)C[C@H]4N(C)C3)(C(C)C)C(=O)N12` [ERGOCORNINE], the IC50 entry was “Not Active” in assay [1]; “Not Active” against Vasopressin V1a receptor; “Not Active” in assay [2]; 0.015 µM in assay [3] (read-out: IC50); “Not Active” in assay [4]; “Not Active” in assay [5]. Also, the 50% inhibitory concentration (IC50) entry in assay [6] and in assay [7] was “Not Active” throughout. For the same compound, the Ki entry in assay [2] was “Not Active”; in assay [3], 0.00709 µM; in assay [5], “Not Active”; in assay [7], “Not Active”.
Turning to `CC(C)[C@@]1(NC(=O)[C@@H]2C[C@@H]3c4cccc5[nH]cc(c45)C[C@H]3N(C)C2)O[C@@]2(O)[C@@H]3CCCN3C(=O)[C@H](Cc3ccccc3)N2C1=O.CS(=O)(=O)O` [DIHYDROERGOCRISTINE MESYLATE], the IC50 result in assay [1] was “Not Active”; against Vasopressin V1a receptor it was “Not Active”; in assay [2], “Not Active”; in assay [3] (read-out: IC50) it was 0.042 µM; in assay [4] it was “Not Active”; in assay [5], “Not Active”. The half-inhibitory concentration (IC50) result in assay [6] and in assay [7] was “Not Active” throughout. Further, the Ki result in assay [2] was “Not Active”; in assay [3] it was 0.019 µM; in assay [5] it was “Not Active”; in assay [7] it was “Not Active”.
